The text below walks through data of patent publication US20260201008A1, “SECRETIN-DERIVED GLP1R SELECTIVE AGONISTS” (GUBRA A/S, priority 2023, published 2026).

Numbered stars: 1 amine (or outer) side, 2 acyl side, 3 side chain; on linkers, the order of the positions; unused ones are H or OH. Square brackets hold non-standard residues; d marks the D form. Side chains are listed from the residue outwards. Ends that are not written are not given here. Peptide text beside a SMILES is read from it. * marks the point of attachment. C20 diacid = O=C(O)CCCCCCCCCCCCCCCCCCC(=O)*; γGlu = O=C(O)[C@H](CCC(=O)[*:2])N[*:1]; AEEA = NCCOCCOCC(=O)O; Aib = CC(C)(N)C(=O)O

Data set [1] can be described thus: Turbidity of crude library peptides (absorbance at 600 nm). The data set is classed as physicochemical. Conditions: Physical stability of peptides. The essentials:
(§1)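 Turbidity is the absorbance at 600 nm, taken before heating. Fibril signal is the mean ThT emission at 480 nm (450 nm excitation), read every 10 min over 72 h at 40° C with 700 rpm shaking between reads. Peptides at 267 μM, pH 4.0 acetate or pH 7.0 phosphate buffer (50 mM), 4 μM ThT final.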

Data set [2] is described as follows: Fibril formation of crude library peptides (Thioflavin T). It counts as physicochemical. Set-up: key: average ThT fluorescence emission at 480 nm (ex 450 nm), raw units. Conditions: Physical stability of peptides. In short, it runs like this: as §1
Another data set addresses GLP1R (Homo sapiens, UniProt P43220). Briefly: hGLP1R potency, cAMP accumulation in CHO-K1 cells stably overexpressing hGLP1R. Set-up: host or cells: CHO-K1. Conditions: for EC50: cAMP accumulation, CHO-K1 cells stably overexpressing hGLP1R, read-out: hGLP1R potency (pEC50) (converted); for SCTR EC50/GLP1R EC50 ratio: selectivity ratio, hSCTR vs hGLP1R, cAMP accumulation in CHO-K1 cells. It counts as cell-based. In short, it runs like this:
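EC50 derives from variable-slope nonlinear regression of cAMP HTRF signal, with purified peptides tested as 11 three-fold dilutions in duplicate. Assay: hGLP1R-overexpressing CHO-K1 cells, 0.5 mM IBMX, 0.05% casein in DPBS, 30 min room-temperature stimulation, GLP-1(7-36) as reference agonist.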

Another data set deals with SCTR (Homo sapiens, UniProt P47872). Briefly: hSCTR potency, cAMP accumulation in CHO-K1 cells stably overexpressing hSCTR. It counts as cell-based. Set-up: alternatively Euroscreen ES-712-AF; FAST-0161L; host or cells: CHO-K1. Conditions: cAMP accumulation, CHO-K1 cells stably overexpressing hSCTR; read-out: hSCTR potency (pEC50) (converted). In short, it runs like this: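 EC50 derived from variable-slope nonlinear regression on 11-point, 3-fold series run in duplicate (crude peptides: 5 points, 10-fold, n=1). Compound stimulation lasted 30 min at room temperature in casein/IBMX-containing DPBS (0.05%, 0.5 mM), 2000 cells/well; cAMP detected by time-resolved FRET after one hour.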
Sequence of SCTR (P47872 23-440): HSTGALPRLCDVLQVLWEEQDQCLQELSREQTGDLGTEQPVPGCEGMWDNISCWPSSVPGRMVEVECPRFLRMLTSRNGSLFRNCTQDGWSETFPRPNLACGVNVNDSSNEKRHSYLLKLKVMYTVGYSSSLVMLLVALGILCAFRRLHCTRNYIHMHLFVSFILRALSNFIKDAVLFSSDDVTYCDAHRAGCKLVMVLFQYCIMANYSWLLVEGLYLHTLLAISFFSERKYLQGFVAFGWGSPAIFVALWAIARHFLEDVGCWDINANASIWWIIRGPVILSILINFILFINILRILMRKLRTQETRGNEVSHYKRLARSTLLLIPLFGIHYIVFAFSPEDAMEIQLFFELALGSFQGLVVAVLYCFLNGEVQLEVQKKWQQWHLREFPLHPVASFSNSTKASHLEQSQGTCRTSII

Data set [3] has as its target human GLP-1 receptor (hGLP1R) (human, UniProt P43220 24-463). Description: cell-based or functional assay.
Data set [4] addresses human secretin receptor (hSCTR) (human, UniProt P47872 23-440). Briefly: cell-based or functional assay.

Sequence of human secretin receptor (hSCTR) (P47872 23-440): as above
Sequence of GLP1R (P43220 24-463): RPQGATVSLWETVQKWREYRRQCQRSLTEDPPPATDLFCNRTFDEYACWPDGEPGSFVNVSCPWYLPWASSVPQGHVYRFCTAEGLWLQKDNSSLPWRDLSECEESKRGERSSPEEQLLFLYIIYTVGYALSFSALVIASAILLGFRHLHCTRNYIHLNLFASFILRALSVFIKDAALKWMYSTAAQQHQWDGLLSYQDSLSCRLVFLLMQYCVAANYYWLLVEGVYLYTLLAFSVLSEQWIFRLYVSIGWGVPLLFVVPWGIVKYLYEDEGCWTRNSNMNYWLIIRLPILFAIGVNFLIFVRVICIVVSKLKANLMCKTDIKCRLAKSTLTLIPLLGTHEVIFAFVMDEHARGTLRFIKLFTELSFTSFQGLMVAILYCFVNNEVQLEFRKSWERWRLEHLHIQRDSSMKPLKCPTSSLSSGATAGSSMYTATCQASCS

Consider `CC[C@H](C)[C@H](NC(=O)[C@H](Cc1ccccc1)NC(=O)[C@H](CCCNC(=N)N)NC(=O)[C@H](CCC(N)=O)NC(=O)[C@H](CC(C)C)NC(=O)[C@H](C)NC(=O)[C@H](C)NC(=O)CNC(=O)[C@H](CCC(=O)O)NC(=O)[C@H](CC(C)C)NC(=O)[C@H](CC(C)C)NC(=O)[C@@H](NC(=O)[C@H](CO)NC(=O)[C@H](Cc1ccc(O)cc1)NC(=O)[C@H](CC(=O)O)NC(=O)[C@H](CO)NC(=O)[C@@H](NC(=O)[C@H](Cc1ccccc1)NC(=O)[C@@H](NC(=O)CNC(=O)[C@H](CCC(=O)O)NC(=O)C(C)(C)NC(=O)[C@@H](N)Cc1c[nH]cn1)[C@@H](C)O)[C@@H](C)O)C(C)C)C(=O)N[C@@H](CCC(N)=O)C(=O)N[C@@H](Cc1c[nH]c2ccccc12)C(=O)N[C@@H](CC(C)C)C(=O)N[C@H](C(N)=O)C(C)C` [compound 198] (H-H[Aib]EGTFTSDYSVLLEGAALQRFIQWLV-NH2), for which the “Turbidity (pH 7)” value in data set [1] came to 0.33. This molecule registered a Fibril formation in data set [2] of 257659. For the same molecule, at GLP1R, the EC50 was 0.0251 nM and the “SCTR EC50/GLP1R EC50 ratio” value came out at 185. Also, the EC50 on SCTR was 5.01 nM.
For `CC[C@H](C)[C@H](NC(=O)[C@H](Cc1ccccc1)NC(=O)[C@H](CCCNC(=N)N)NC(=O)[C@H](CCC(N)=O)NC(=O)[C@H](CC(C)C)NC(=O)[C@H](C)NC(=O)[C@H](C)NC(=O)CNC(=O)[C@H](CCC(=O)O)NC(=O)[C@H](CC(C)C)NC(=O)[C@H](CC(C)C)NC(=O)[C@H](CCC(=O)O)NC(=O)[C@H](CO)NC(=O)[C@H](Cc1ccc(O)cc1)NC(=O)[C@H](CC(=O)O)NC(=O)[C@H](CO)NC(=O)[C@@H](NC(=O)[C@H](Cc1ccccc1)NC(=O)[C@@H](NC(=O)CNC(=O)[C@H](CCC(=O)O)NC(=O)C(C)(C)NC(=O)[C@@H](N)Cc1c[nH]cn1)[C@@H](C)O)[C@@H](C)O)C(=O)N[C@@H](CCC(N)=O)C(=O)N[C@@H](Cc1c[nH]c2ccccc12)C(=O)N[C@@H](CC(C)C)C(=O)N[C@H](C(N)=O)C(C)C` [compound 199] (H-H[Aib]EGTFTSDYSELLEGAALQRFIQWLV-NH2), in that order: 0.46, 260000, 0.0251 nM, 223 and 5.01 nM.
Take `CC[C@H](C)[C@H](NC(=O)[C@H](Cc1ccccc1)NC(=O)[C@H](CCCNC(=N)N)NC(=O)[C@H](CCC(N)=O)NC(=O)[C@H](CC(C)C)NC(=O)[C@H](C)NC(=O)[C@H](C)NC(=O)CNC(=O)[C@H](CCC(=O)O)NC(=O)[C@H](CC(C)C)NC(=O)[C@H](CC(C)C)NC(=O)[C@H](Cc1c[nH]c2ccccc12)NC(=O)[C@H](CO)NC(=O)[C@H](Cc1ccc(O)cc1)NC(=O)[C@H](CC(=O)O)NC(=O)[C@H](CO)NC(=O)[C@@H](NC(=O)[C@H](Cc1ccccc1)NC(=O)[C@@H](NC(=O)CNC(=O)[C@H](CCC(=O)O)NC(=O)C(C)(C)NC(=O)[C@@H](N)Cc1c[nH]cn1)[C@@H](C)O)[C@@H](C)O)C(=O)N[C@@H](CCC(N)=O)C(=O)N[C@@H](Cc1c[nH]c2ccccc12)C(=O)N[C@@H](CC(C)C)C(=O)N[C@H](C(N)=O)C(C)C` [compound 200] (H-H[Aib]EGTFTSDYSWLLEGAALQRFIQWLV-NH2): the “Turbidity (pH 7)” value in data set [1] was 0.92. In addition, the Fibril formation in data set [2] was determined as 141730. At GLP1R, the EC50 is 0.02 nM and the “SCTR EC50/GLP1R EC50 ratio” value came to 353. Also, at SCTR, the EC50 was 7.94 nM.
Turning to `CC[C@H](C)[C@H](NC(=O)[C@H](Cc1ccccc1)NC(=O)[C@H](CCCNC(=N)N)NC(=O)[C@H](CCC(N)=O)NC(=O)[C@H](CC(C)C)NC(=O)[C@H](C)NC(=O)[C@H](C)NC(=O)CNC(=O)[C@H](CCC(=O)O)NC(=O)[C@H](CC(C)C)NC(=O)[C@H](CC(C)C)NC(=O)[C@H](Cc1ccc(O)cc1)NC(=O)[C@H](CO)NC(=O)[C@H](Cc1ccc(O)cc1)NC(=O)[C@H](CC(=O)O)NC(=O)[C@H](CO)NC(=O)[C@@H](NC(=O)[C@H](Cc1ccccc1)NC(=O)[C@@H](NC(=O)CNC(=O)[C@H](CCC(=O)O)NC(=O)C(C)(C)NC(=O)[C@@H](N)Cc1c[nH]cn1)[C@@H](C)O)[C@@H](C)O)C(=O)N[C@@H](CCC(N)=O)C(=O)N[C@@H](Cc1c[nH]c2ccccc12)C(=O)N[C@@H](CC(C)C)C(=O)N[C@H](C(N)=O)C(C)C` [compound 201] (H-H[Aib]EGTFTSDYSYLLEGAALQRFIQWLV-NH2), in data set [1], the “Turbidity (pH 7)” value came to 0.30. The Fibril formation in data set [2] is on record as 30208. In addition, the EC50 at GLP1R was 0.0126 nM; on SCTR, 12.6 nM. Besides, at GLP1R, the “SCTR EC50/GLP1R EC50 ratio” value is 940.
For the molecule `CC[C@H](C)[C@H](NC(=O)[C@H](Cc1ccccc1)NC(=O)[C@H](CCCNC(=N)N)NC(=O)[C@H](CCC(N)=O)NC(=O)[C@H](CC(C)C)NC(=O)[C@H](C)NC(=O)[C@H](C)NC(=O)CNC(=O)[C@H](CCC(=O)O)NC(=O)[C@H](CC(C)C)NC(=O)[C@H](CC(C)C)NC(=O)[C@H](Cc1ccccc1)NC(=O)[C@H](CO)NC(=O)[C@H](Cc1ccc(O)cc1)NC(=O)[C@H](CC(=O)O)NC(=O)[C@H](CO)NC(=O)[C@@H](NC(=O)[C@H](Cc1ccccc1)NC(=O)[C@@H](NC(=O)CNC(=O)[C@H](CCC(=O)O)NC(=O)C(C)(C)NC(=O)[C@@H](N)Cc1c[nH]cn1)[C@@H](C)O)[C@@H](C)O)C(=O)N[C@@H](CCC(N)=O)C(=O)N[C@@H](Cc1c[nH]c2ccccc12)C(=O)N[C@@H](CC(C)C)C(=O)N[C@H](C(N)=O)C(C)C` [compound 202] (H-H[Aib]EGTFTSDYSFLLEGAALQRFIQWLV-NH2), the “Turbidity (pH 7)” value in data set [1] came to 0.60. The same molecule returned a Fibril formation in data set [2] of 260000. Besides, on GLP1R, the EC50 was 0.0398 nM and the “SCTR EC50/GLP1R EC50 ratio” value came out at 820. In addition, on SCTR, the EC50 was 39.8 nM.
Take H[Aib]EGTFTSDVSRLK([AEEA-AEEA-γGlu-C20 diacid])EEAA[Aib]QRFLEHLV-NH2 (also: K14 lipid also given as C18DA[γE][OEG][OEG]-) [SEQ ID NO: 1]: in data set [3], the “pEC50 hGLPR1” value is 10.4 -log M. Besides, in data set [4], the “pEC50 hSCTR” value was 6.8 -log M.
For H[Aib]EGTFTSDVSRLK([AEEA-AEEA-γGlu-C20 diacid])EFAASQRFLEHLV-NH2 [SEQ ID NO: 52], in that order: 9.9 -log M and 6.4 -log M.
For H[Aib]EGTFTSDVSELK([AEEA-AEEA-γGlu-C20 diacid])E[Aib]AAQQRFLEHLV-NH2 [SEQ ID NO: 5], in that order: 10.9 -log M and 7.1 -log M.
For H[Aib]EGTFTSDVSRLK([AEEA-AEEA-γGlu-C20 diacid])E[Aib]AATQRFLEHLV-NH2 [SEQ ID NO: 50], in that order: 10.8 -log M and 7.3 -log M.
For the molecule H[Aib]EGTFTSDVSVLK([AEEA-AEEA-γGlu-C20 diacid])EEAATQRFLEHLV-NH2 [SEQ ID NO: 53], the “pEC50 hGLPR1” value in data set [3] was 11.3 -log M. Also, the “pEC50 hSCTR” value in data set [4] was 7.2 -log M.
For H[Aib]EGTFTSDVSELK([AEEA-AEEA-γGlu-C20 diacid])EEAAEQRFLEHLV-NH2 [SEQ ID NO: 51], the “pEC50 hGLPR1” value in data set [3] is 10.5 -log M. Moreover, the “pEC50 hSCTR” value in data set [4] is 5.7 -log M.
